# Species: Rattus norvegicus
# Format: toxicity, organism-based, Sprague-Dawley
# Details: in vivo, po, route oral GAVAGE, […]; for ABSOLUTE EOSINOPHIL / ABSOLUTE LYMPHOCYTE / ABSOLUTE MONOCYTE / ABSOLUTE SEGMENTED NEUTROPHIL / BASOPHIL / EOSINOPHIL / ERYTHROCYTE COUNT / HEMATOCRIT / HEMOGLOBIN / LEUKOCYTE COUNT / LYMPHOCYTE / MEAN CORPUSCULAR HEMOGLOBIN / MEAN CORPUSCULAR HEMOGLOBIN CONCENTRATION / MEAN CORPUSCULAR VOLUME / MONOCYTE / NEUTROPHIL / NUCLEATED RED BLOOD CELLS / PLATELET COUNT: tissue Blood; for ALANINE AMINOTRANSFERASE / ALBUMIN / ALKALINE PHOSPHATASE / ASPARTATE AMINOTRANSFERASE / BLOOD UREA NITROGEN / CARBON DIOXIDE / CHLORIDE / CHOLESTEROL / CREATINE PHOSPHOKINASE / CREATININE / GLUCOSE / LACTATE DEHYDROGENASE / LIPASE / PHOSPHORUS / POTASSIUM / SODIUM / TOTAL BILIRUBIN / TOTAL PROTEIN / URIC ACID: tissue Plasma
# [1] = 0 mg/kg, 6 h, vehicle control, dose level Control, time 0.25 day
# [2] = 0 mg/kg, 24 h, vehicle control, dose level Control, time 1 day
# [3] = 400 mg/kg, 6 h, dose level Low, time 0.25 day
# Description: DrugMatrix - Regimen: Single
compound,measurement,setting,value
ClC(Cl)(Cl)Cl [CARBON TETRACHLORIDE],ABSOLUTE EOSINOPHIL,[1],61.17 CELLS/uL
same,ABSOLUTE LYMPHOCYTE,[1],12625.83 CELLS/uL
same,ABSOLUTE MONOCYTE,[1],417.17 CELLS/uL
same,ABSOLUTE SEGMENTED NEUTROPHIL,[1],1595.83 CELLS/uL
same,BASOPHIL,[1],0%
same,EOSINOPHIL,[1],0.33%
same,ERYTHROCYTE COUNT,[1],5.46 x10E6/uL
same,HEMATOCRIT,[1],36.02%
same,HEMOGLOBIN,[1],13.55 G/DL
same,LEUKOCYTE COUNT,[1],14.7 x10E3/uL
same,LYMPHOCYTE,[1],85.83%
same,MEAN CORPUSCULAR HEMOGLOBIN,[1],24.87 pg
same,MEAN CORPUSCULAR HEMOGLOBIN CONCENTRATION,[1],37.65 G/DL
same,MEAN CORPUSCULAR VOLUME,[1],66.03 fL
same,MONOCYTE,[1],2.67%
same,NEUTROPHIL,[1],11.17%
same,NUCLEATED RED BLOOD CELLS,[1],0 /100WBC
same,PLATELET COUNT,[1],1072.33 x10E3/uL
same,ALANINE AMINOTRANSFERASE,[1],63.33 u/L
same,ALBUMIN,[1],4.58 G/DL
same,ALKALINE PHOSPHATASE,[1],285 u/L
same,ASPARTATE AMINOTRANSFERASE,[1],116.5 u/L
same,BLOOD UREA NITROGEN,[1],9.17 mg/dL
same,CARBON DIOXIDE,[1],18.83 mmol/L
same,CHLORIDE,[1],104.5 MEQ/L
same,CHOLESTEROL,[1],68.67 mg/dL
same,CREATINE PHOSPHOKINASE,[1],421 u/L
same,CREATININE,[1],0.58 mg/dL
same,GLUCOSE,[1],160.67 mg/dL
same,LACTATE DEHYDROGENASE,[1],396 u/L
same,LIPASE,[1],10.33 u/L
same,PHOSPHORUS,[1],12.25 mg/dL
same,POTASSIUM,[1],6.42 MEQ/L
same,SODIUM,[1],142.77 MEQ/L
same,TOTAL BILIRUBIN,[1],0.25 mg/dL
same,TOTAL PROTEIN,[1],5.48 G/DL
same,URIC ACID,[1],1.65 mg/dL
same,HEMATOCRIT,"0 mg/kg, 24 h, dose level Control, time 1 day",31.9%
same,ABSOLUTE EOSINOPHIL,[2],23.83 CELLS/uL
same,ABSOLUTE LYMPHOCYTE,[2],11026.5 CELLS/uL
same,ABSOLUTE MONOCYTE,[2],98.5 CELLS/uL
same,ABSOLUTE SEGMENTED NEUTROPHIL,[2],667.83 CELLS/uL
same,BASOPHIL,[2],0%
same,EOSINOPHIL,[2],0.17%
same,ERYTHROCYTE COUNT,[2],4.92 x10E6/uL
same,HEMOGLOBIN,[2],12.6 G/DL
same,LEUKOCYTE COUNT,[2],11.82 x10E3/uL
same,LYMPHOCYTE,[2],93%
same,MEAN CORPUSCULAR HEMOGLOBIN,[2],25.7 pg
same,MEAN CORPUSCULAR HEMOGLOBIN CONCENTRATION,[2],39.57 G/DL
same,MEAN CORPUSCULAR VOLUME,[2],64.97 fL
same,MONOCYTE,[2],0.83%
same,NEUTROPHIL,[2],6%
same,NUCLEATED RED BLOOD CELLS,[2],0 /100WBC
same,PLATELET COUNT,[2],872.33 x10E3/uL
same,ALANINE AMINOTRANSFERASE,[2],82.67 u/L
same,ALBUMIN,[2],4.17 G/DL
same,ALKALINE PHOSPHATASE,[2],321.83 u/L
same,ASPARTATE AMINOTRANSFERASE,[2],99.5 u/L
same,BLOOD UREA NITROGEN,[2],13.33 mg/dL
same,CARBON DIOXIDE,[2],33.67 mmol/L
same,CHLORIDE,[2],99.83 MEQ/L
same,CHOLESTEROL,[2],64 mg/dL
same,CREATINE PHOSPHOKINASE,[2],275.33 u/L
same,CREATININE,[2],0.21 mg/dL
same,GLUCOSE,[2],146.17 mg/dL
same,LACTATE DEHYDROGENASE,[2],101 u/L
same,LIPASE,[2],9.83 u/L
same,PHOSPHORUS,[2],8.82 mg/dL
same,POTASSIUM,[2],5.51 MEQ/L
same,SODIUM,[2],143.2 MEQ/L
same,TOTAL BILIRUBIN,[2],0.18 mg/dL
same,TOTAL PROTEIN,[2],5.83 G/DL
same,URIC ACID,[2],0.63 mg/dL
same,ABSOLUTE EOSINOPHIL,[3],44 CELLS/uL
same,ABSOLUTE LYMPHOCYTE,[3],11229.17 CELLS/uL
same,ABSOLUTE MONOCYTE,[3],321.83 CELLS/uL
same,ABSOLUTE SEGMENTED NEUTROPHIL,[3],3421.67 CELLS/uL
same,BASOPHIL,[3],0%
same,EOSINOPHIL,[3],0.33%
same,ERYTHROCYTE COUNT,[3],6.19 x10E6/uL
same,HEMATOCRIT,[3],40.97%
same,HEMOGLOBIN,[3],15.07 G/DL
same,LEUKOCYTE COUNT,[3],15.02 x10E3/uL
same,LYMPHOCYTE,[3],73%
same,MEAN CORPUSCULAR HEMOGLOBIN,[3],24.45 pg
same,MEAN CORPUSCULAR HEMOGLOBIN CONCENTRATION,[3],36.95 G/DL
same,MEAN CORPUSCULAR VOLUME,[3],66.17 fL
same,MONOCYTE,[3],2.17%
same,NEUTROPHIL,[3],24.5%
same,NUCLEATED RED BLOOD CELLS,[3],0 /100WBC
same,PLATELET COUNT,[3],1278.5 x10E3/uL
same,ALANINE AMINOTRANSFERASE,[3],102.5 u/L
same,ALBUMIN,[3],4.68 G/DL
same,ALKALINE PHOSPHATASE,[3],305.83 u/L
same,ASPARTATE AMINOTRANSFERASE,[3],279.83 u/L
same,BLOOD UREA NITROGEN,[3],16.33 mg/dL
same,CARBON DIOXIDE,[3],16.33 mmol/L
same,CHLORIDE,[3],100.33 MEQ/L
same,CHOLESTEROL,[3],70 mg/dL
same,CREATINE PHOSPHOKINASE,[3],845.5 u/L
same,CREATININE,[3],0.19 mg/dL
same,GLUCOSE,[3],129.67 mg/dL
same,LACTATE DEHYDROGENASE,[3],1003.17 u/L
same,LIPASE,[3],9 u/L
same,PHOSPHORUS,[3],15.78 mg/dL
same,POTASSIUM,[3],7.57 MEQ/L
same,SODIUM,[3],142.47 MEQ/L
same,TOTAL BILIRUBIN,[3],0.3 mg/dL
same,TOTAL PROTEIN,[3],6.17 G/DL
same,URIC ACID,[3],3.2 mg/dL
